Assay results taken from patent publication US20260176313A1, “TGF-BETA-1 VACCINE” (IO BIOTECH APS, priority 2022, published 2026).

Experiments:
MC38 tumor = test: Analysis of tumor microenvironment (TME) by flow cytometry in MC38 tumor study; assay type: in vivo, mouse; conditions: vaccinated Days 0, 7, 14, termination day 21
Description: FIG. 10A-D. TGFb-1 vaccine drives derived immune permissive changes in the TME. Tumor weight was compared between groups at experiment termination (day 21). TGFB-1 expression was assayed by latency associated peptide (LAP) staining.
(§1) For the MC38 tumor study, female C56/BL6 mice (Tacomic) were vaccinated with 100 μg of peptide (SEQ ID: 31 or SEQ ID NO: 34) prepared in DMSO and diluted in water to a total volume of 50 μl (per injection) before mixing with an equal volume of Montanide ISA51 VG ST adjuvant to form an emulsion. The vaccine formulation was administered subcutaneously (s.c.) at the tail base on Days 0, 7, and 14. MC38 tumor cells (2e5 per injection) were administered s.c. in the flank on day 0. Every 3 to 4 days, tumors were measured with a Vernier caliper and the tumor volume was calculated using the formula: V=L×W2/2, where V is tumor volume, L is the length of tumor (longer axis), and W is the width of the tumor (shorter axis).
Freshly isolated tumors were dissociated by collagenase digestion to yield a single cell suspension for flow cytometry analysis. Approximately 1 million cells were stained for analysis by flow cytometry using a Symphony Al flow cytometer (BD, Becton Dickinson) with the following antibodies, anti-mouse LAP BV421 (BD, 565638), anti-mouse CD4 BV605 (BD, 743156) and anti-mouse CD8 BV786 (BD, 563332). Data analysis was performed using FlowJo software.

mice = test: IFNγ ELISPOT assay of immune responses in mice vaccinated with synthetic long peptides; assay type: in vivo, mouse; conditions: mice vaccinated with SLP; recall with minimal class I / class II peptides
Description: FIG. 9. TGFb-1 vaccine induces robust immune responses. Mice were vaccinated with two different synthetic long peptides (SLPs) and immune responses were analyzed by IFNγ ELISPOT assay. ELISPOT responses for individual mice are shown. Results for control peptides are clearly indicated.
as §1
A murine TGFb-1 vaccine was developed based on synthetic long peptides (SLPs) encoding predicted MHC class I and class II epitopes (SEQ ID NOs: 31-36 in Table 1 below). Pre-clinical studies of anti-TGFb therapies often fail to show any impact on tumor growth when administered as a monotherapy.

SLDTQYSKVLALYNQHNPGASASP [SLP2]
CD4+ T cell infiltration in TME (MC38 tumor): significantly enhanced | CD8+ T cell infiltration in TME (MC38 tumor): remained unchanged | Immune response by IFNγ ELISPOT in vaccinated mice (mice): mainly induced class II response
